Where a name gives a salt, the structure may show the parent alone. Read-outs that look alike come from different tables or passages of the source.
How the values were obtained:
[1] = molecular target: T1, human cloned 5-HT6 receptors (Homo sapiens, UniProt P50406); assay: 5-HT6 binding affinity, [3H]-LSD displacement on membranes of Hela cells expressing human cloned 5-HT6 receptors; details: for Ki: [3H]-LSD 3.0 nM, Hela cell membranes, 120 min at room temperature; for inhibition at 1 µM: test compound at 1 μM, displacement of [3H]-LSD
T1 construct: expressed in transfected cells; host or cells: HeLa cells (membrane preparation)
T1 sequence (P50406 whole entry): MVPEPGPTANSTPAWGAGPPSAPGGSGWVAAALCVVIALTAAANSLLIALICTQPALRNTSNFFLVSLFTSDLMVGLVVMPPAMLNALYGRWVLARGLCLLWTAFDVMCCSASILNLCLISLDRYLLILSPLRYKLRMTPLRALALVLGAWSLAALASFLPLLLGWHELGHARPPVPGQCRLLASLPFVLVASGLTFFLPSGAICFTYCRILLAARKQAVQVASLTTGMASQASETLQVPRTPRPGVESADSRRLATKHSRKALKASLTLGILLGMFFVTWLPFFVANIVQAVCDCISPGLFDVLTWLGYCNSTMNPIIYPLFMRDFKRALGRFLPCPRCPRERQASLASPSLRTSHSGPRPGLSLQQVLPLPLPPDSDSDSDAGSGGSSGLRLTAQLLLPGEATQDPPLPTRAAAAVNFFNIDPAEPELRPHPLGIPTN
Description: The affinity of test compounds for the serotonin 5-HT6 receptor is evaluated in the following manner. Cultured Hela cells expressing human cloned 5-HT6 receptors are harvested and centrifuged at low speed (1,000×g) for 10.0 min to remove the culture media. The harvested cells are suspended in half volume of fresh physiological phosphate buffered saline solution and recentrifuged at the same speed. This operation is repeated. The collected cells are then homogenized in ten volumes of 50 mM Tris.HCl (pH 7.4) and 0.5 mM EDTA. The homogenate is centrifuged at 40,000×g for 30.0 min and the precipitate is collected. The obtained pellet is resuspended in 10 volumes of Tris.HCl buffer and recentrifuged at the same speed. The final pellet is suspended in a small volume of Tris.HCl buffer and the tissue protein content is determined in aliquots of 10-25 μl volumes. Bovine Serum Albumin is used as the standard in the protein determination according to the method described in Lowry et al., J. Biol. Chem., 193:265 (1951). The volume of the suspended cell membranes is adjusted to give a tissue protein concentration of 1.0 mg/ml of suspension. The prepared membrane suspension (10 times concentrated) is aliquoted in 1.0 ml volumes and stored at −70° C. until used in subsequent binding experiments.
Binding experiments are performed in a 96 well microtiter plate format, in a total volume of 200 μl. […] The test compounds are added in 20.0 μl volume.
The reaction is allowed to proceed in the dark for 120 min at room temperature, at which time, the bound ligand-receptor complex is filtered off on a 96 well unifilter with a Packard Filtermate® 196 Harvester. The bound complex caught on the filter disk is allowed to air dry and the radioactivity is measured in a Packard TopCount® equipped with six photomultiplier detectors, after the addition of 40.0 μl Microscint®−20 scintillant to each shallow well. The unifilter plate is heat-sealed and counted in a PackardTopCount® with a tritium efficiency of 31.0%.
Binding in the presence of varying concentrations of test compound is expressed as a percentage of specific binding in the absence of test compound. The results are plotted as log % bound versus log concentration of test compound. Nonlinear regression analysis of data points with a computer assisted program Prisms® yields both the IC50 and the Ki values of test compounds with 95% confidence limits.
The amount of displacement by the test compound is given in percent (%) inhibition and is derived from the following equation:
[formula] where B0 is the amount of CPM bound in the presence of the testing agent. NSB represents the CPM bound in the presence of a saturating concentration of a displacer and TB represents the total amount of CPM bound at zero (0) concentration of test compound.
Alternatively, a linear regression line of data points is plotted, from which the IC50 value is determined and the Ki value is determined based upon the following equation: Ki=IC50/(1+L/KD) where L is the concentration of the radioactive ligand used and KD is the dissociation constant of the ligand for the receptor, both expressed in nM.

## CN1CCN(c2cc(Cl)cc3c(S(=O)(=O)c4cccc(C(F)(F)F)c4)n[nH]c23)CC1 [Example 99]
[1]; read-out: 5-HT6 Binding Ki
  Ki: 20 nM

## CN1CCN(c2ccc3[nH]nc(S(=O)(=O)c4ccccc4F)c3c2)CC1 [Example 58]
[1]; read-out: 5-HT6 Binding Ki
  Ki: 3 nM

## CN1CCN(c2ccc3[nH]nc(S(=O)(=O)c4cccc5ccccc45)c3c2)CC1 [Example 14]
[1]; read-out: 5-HT6 Binding Ki
  Ki: 1 nM

## CN1CCN(c2ccc3[nH]nc(S(=O)(=O)c4ccc(S(C)(=O)=O)cc4)c3c2)CC1 [Example 80]
[1]; read-out: 5-HT6 Binding Ki
  Ki: 62 nM

## CN1CCN(c2ccc3c(c2)c(S(=O)(=O)c2cccc4ccccc24)nn3C)CC1 [Example 47]
[1]; read-out: 5-HT6 Binding Ki
  Ki: 2 nM

## CN1CCN(c2cccc3c(S(=O)(=O)c4cccc5ccccc45)n[nH]c23)CC1 [Example 101]
[1]; read-out: 5-HT6 Binding Ki
  Ki: 5 nM

## CCn1nc(S(=O)(=O)c2ccccc2)c2cc(N3CCNCC3)ccc21 [Example 43]
[1]; read-out: 5-HT6 Binding Ki
  Ki: 3 nM
other
  melting point: > 200 °C

## COc1cc2c(cc1N1CCNCC1)c(S(=O)(=O)c1ccccc1)nn2-c1ccc(C(F)(F)F)cc1 [Example 10, 6-Methoxy-3-(phenylsulfonyl)-5-(piperazin-1-yl)-1-[4-(trifluoromethyl)phenyl]-1H-indazole hydrochloride]
[1]; read-out: 5-HT6 Binding Ki
  Ki: 224 nM

## O=S(=O)(c1ccccc1)c1nn(-c2ccc(C(F)(F)F)cc2)c2ccc(N3CCNCC3)cc12 [Example 33]
[1]; read-out: 5-HT6 Binding Ki
  Ki: 19 nM
other
  melting point: 170 to 172 °C

## COc1cc2c(cc1N1CCNCC1)c(S(=O)(=O)c1ccccc1)nn2-c1ccccc1 [Example 9, 6-Methoxy-1-phenyl 3-(phenylsulfonyl)-5-piperazin-1-yl-1H-indazole hydrochloride]
[1]; read-out: 5-HT6 Binding Ki
  Ki: 97 nM

## CN1CCN(c2cc(Cl)cc3c(S(=O)(=O)c4cccc5ccccc45)n[nH]c23)CC1 [Example 100]
[1]; read-out: 5-HT6 Binding Ki
  Ki: 5 nM

## CN1CCN(c2ccc3[nH]nc(S(=O)(=O)c4ccc(Br)cc4)c3c2)CC1 [Example 17]
[1]; read-out: 5-HT6 Binding Ki
  Ki: 7 nM
other
  melting point: > 250 °C

## O=S(=O)(c1ccccc1)c1nn(-c2cccc(C(F)(F)F)c2)c2ccc(N3CCNCC3)cc12 [Example 40]
[1]; read-out: 5-HT6 Binding Ki
  Ki: 62 nM
other
  melting point: 139 to 142 °C

## O=S(=O)(c1ccccc1)c1nn(CCc2ccccc2)c2ccc(N3CCNCC3)cc12 [Example 31]
[1]; read-out: 5-HT6 Binding Ki
  Ki: 3 nM
other
  melting point: 127 to 130 °C

## CN1CCN(c2ccc3[nH]nc(S(=O)(=O)c4ccc(F)cc4F)c3c2)CC1 [Example 68]
[1]; read-out: 5-HT6 Binding Ki
  Ki: 14 nM

## CCCCn1nc(S(=O)(=O)c2cccc3ccccc23)c2cc(N3CCN(C)CC3)ccc21 [Example 48]
[1]; 5-HT6 Binding Ki
  Ki: 4 nM

## COc1ccc(Cl)cc1S(=O)(=O)c1n[nH]c2ccc(N3CCN(C)CC3)cc12 [Example 77]
[1]; read-out: 5-HT6 Binding Ki
  Ki: 2 nM

## O=S(=O)(c1cccc(F)c1)c1n[nH]c2ccc(N3CCN(Cc4ccccc4)CC3)cc12 [Example 5, 5-(4-Benzylpiperazin-1-yl)-3-[(3-fluorophenyl)sulfonyl]-1H-indazole hydrochloride]
[1]
  inhibition at 1 µM: 53%

## COc1ccc(S(=O)(=O)c2n[nH]c3ccc(N4CCN(C)CC4)cc23)cc1 [Example 64]
[1]; read-out: 5-HT6 Binding Ki
  Ki: 12 nM

## CN1CCN(c2ccc3[nH]nc(S(=O)(=O)c4ccc(Cl)cc4)c3c2)CC1 [Example 67]
[1]; read-out: 5-HT6 Binding Ki
  Ki: 8 nM

## COc1cccc(-n2nc(S(=O)(=O)c3ccccc3)c3cc(N4CCNCC4)ccc32)c1 [Example 36]
[1]; read-out: 5-HT6 Binding Ki
  Ki: 20 nM
other
  melting point: 132 to 135 °C

## CN1CCN(c2ccc3[nH]nc(S(=O)(=O)c4cccs4)c3c2)CC1 [Example 54]
[1]; 5-HT6 Binding Ki
  Ki: 8 nM

## CCCn1nc(S(=O)(=O)c2cccc3ccccc23)c2cc(N3CCN(C)CC3)ccc21 [Example 45]
[1]; read-out: 5-HT6 Binding Ki
  Ki: 2 nM

## CN1CCN(c2ccc3[nH]nc(S(=O)(=O)c4c(Cl)cccc4Cl)c3c2)CC1 [Example 91]
[1]; read-out: 5-HT6 Binding Ki
  Ki: 6 nM

## Cn1nc(S(=O)(=O)c2ccccc2)c2cc(N3CCN(Cc4ccccc4)CC3)ccc21 [Example 11, 5-(4-Benzylpiperazin-1-yl)-1-methyl-3-(phenylsulfonyl)-1H-indazole]
[1]
  inhibition at 1 µM: 67%

## O=S(=O)(c1ccccc1)c1nn(-c2ccc(I)cc2)c2ccc(N3CCNCC3)cc12 [Example 42]
[1]; read-out: 5-HT6 Binding Ki
  Ki: 117 nM
other
  melting point: > 200 °C

## CC(C)c1ccc(S(=O)(=O)c2n[nH]c3ccc(N4CCN(C)CC4)cc23)cc1 [Example 71]
[1]; read-out: 5-HT6 Binding Ki
  Ki: 4 nM

## O=S(=O)(c1ccccc1)c1nn(-c2ccc(F)c(Cl)c2)c2ccc(N3CCNCC3)cc12 [Example 38]
[1]; read-out: 5-HT6 Binding Ki
  Ki: 73 nM
other
  melting point: > 200 °C

## CN1CCN(c2ccc3[nH]nc(S(=O)(=O)c4ccccc4F)c3c2)CC1 [Example 18]
[1]; read-out: 5-HT6 Binding Ki
  Ki: 6 nM
other
  melting point: 160 to 161 °C

## CN1CCN(c2ccc3c(c2)c(S(=O)(=O)c2cccc4ccccc24)nn3Cc2ccccc2)CC1 [Example 52]
[1]; read-out: 5-HT6 Binding Ki
  Ki: 2 nM

## O=S(=O)(c1ccccc1)c1nn(-c2ccc(F)cc2)c2ccc(N3CCNCC3)cc12 [Example 37]
[1]; read-out: 5-HT6 Binding Ki
  Ki: 4 nM
other
  melting point: 159 to 161 °C

## CN1CCN(c2ccc3[nH]nc(S(=O)(=O)c4cccc(F)c4)c3c2)CC1 [Example 19]
[1]; read-out: 5-HT6 Binding Ki
  Ki: 2 nM
other
  melting point: > 250 °C

## O=S(=O)(c1ccccc1)c1n[nH]c2ccc(N3CCN(Cc4ccccc4)CC3)cc12 [Example 4, 5-(4-Benzylpiperazin-1-yl)-3-(phenylsulfonyl)-1H-indazole hydrochloride]
[1]; read-out: 5-HT6 Binding Ki
  Ki: 86 nM

## CN1CCN(c2ccc3c(c2)c(S(=O)(=O)c2cccc4ccccc24)nn3Cc2cccc(Cl)c2)CC1 [Example 49]
[1]; read-out: 5-HT6 Binding Ki
  Ki: 6 nM

## CCCCc1ccc(S(=O)(=O)c2n[nH]c3ccc(N4CCN(C)CC4)cc23)cc1 [Example 74]
[1]; read-out: 5-HT6 Binding Ki
  Ki: 26 nM

## CN1CCN(c2ccc3[nH]nc(S(=O)(=O)c4ccc(F)cc4)c3c2)CC1 [Example 60]
[1]; read-out: 5-HT6 Binding Ki
  Ki: 5 nM

## CC(C)n1nc(S(=O)(=O)c2cccc3ccccc23)c2cc(N3CCN(C)CC3)ccc21 [Example 50]
[1]; read-out: 5-HT6 Binding Ki
  Ki: 2 nM

## CN1CCN(c2ccc3[nH]nc(S(=O)(=O)c4ccc5ccccc5c4)c3c2)CC1 [Example 72]
[1]; read-out: 5-HT6 Binding Ki
  Ki: 2 nM

## CC(C)Cn1nc(S(=O)(=O)c2cccc3ccccc23)c2cc(N3CCN(C)CC3)ccc21 [Example 51]
[1]; read-out: 5-HT6 Binding Ki
  Ki: 1 nM

## COc1cc2c(cc1N1CCN(Cc3ccccc3)CC1)c(S(=O)(=O)c1ccccc1)nn2-c1ccccc1 [Example 8, 5-(4-Benzylpiperazin-1-yl)-6-methoxy-1-phenyl-3-(phenylsulfonyl)-1H-indazole hydrochloride]
[1]; read-out: 5-HT6 Binding Ki
  Ki: 399 nM

## CN1CCN(c2ccc3[nH]nc(S(=O)(=O)c4ccccc4Br)c3c2)CC1 [Example 89]
[1]; read-out: 5-HT6 Binding Ki
  Ki: 10 nM

## CN1CCN(c2cc(Cl)cc3c(S(=O)(=O)c4ccc(F)cc4)n[nH]c23)CC1 [Example 97, 5-Chloro-3[(4-fluorophenyl)sulfonyl]-7-(4-methylpiperazin-1-yl)-1H-indazole]
[1]; read-out: 5-HT6 Binding Ki
  Ki: 12 nM

## CCn1nc(S(=O)(=O)c2ccccc2)c2cc(N3CCN(Cc4ccccc4)CC3)ccc21 [Example 12, 5-(4-Benzylpiperazin-1-yl)-1-ethyl-3-(phenylsulfonyl)-1H-indazole dihydrochloride]
[1]; read-out: 5-HT6 Binding Ki
  Ki: 64 nM

## CN1CCN(c2ccc3[nH]nc(S(=O)(=O)c4ccc(Cl)s4)c3c2)CC1 [Example 15]
[1]; read-out: 5-HT6 Binding Ki
  Ki: 2 nM
other
  melting point: > 250 °C

## COc1cccc(S(=O)(=O)c2n[nH]c3ccc(N4CCN(C)CC4)cc23)c1 [Example 63]
[1]; read-out: 5-HT6 Binding Ki
  Ki: 1 nM

## COc1cc2[nH]nc(S(=O)(=O)c3ccccc3)c2cc1N1CCN(Cc2ccccc2)CC1 [Example 7, 5-(4-Benzylpiperazin-1-yl)-6-methoxy-3-(phenylsulfonyl)-1H-indazole hydrochloride]
[1]; read-out: 5-HT6 Binding Ki
  Ki: 113 nM

## CN1CCN(c2ccc3[nH]nc(S(=O)(=O)c4ccccc4Cl)c3c2)CC1 [Example 65]
[1]; read-out: 5-HT6 Binding Ki
  Ki: 4 nM

## O=S(=O)(c1cccc2ccccc12)c1n[nH]c2ccc(N3CCNCC3)cc12 [Example 53]
[1]; read-out: 5-HT6 Binding Ki
  Ki: 1 nM

## CN1CCN(c2ccc3[nH]nc(S(=O)(=O)c4ccc(Cl)s4)c3c2)CC1 [Example 70]
[1]; read-out: 5-HT6 Binding Ki
  Ki: 3 nM

## Cc1ccc(S(=O)(=O)c2n[nH]c3ccc(N4CCN(C)CC4)cc23)cc1 [Example 56]
[1]; read-out: 5-HT6 Binding Ki
  Ki: 5 nM

## CC(C)c1ccc(S(=O)(=O)c2n[nH]c3c(N4CCN(C)CC4)cc(Cl)cc23)cc1 [Example 98]
[1]; read-out: 5-HT6 Binding Ki
  Ki: 22 nM

From patent publication US7560470B2, “Heterocyclyl-3-sulfonylindazoles as 5-hydroxytryptamine-6 ligands” (Wyeth, priority 2003, dated 2009)
